Reference: ChEMBL document CHEMBL3351952, “The antimicrobial activity of mono-, bis-, tris-, and tetracationic amphiphiles derived from simple polyamine platforms” (2014)

How the values were obtained:
Type in all cases: functional
Staphylococcus aureus = assay: Antimicrobial activity against Staphylococcus aureus SH1000 after 72 hrs by broth microdilution method; details: SH1000, 72 h
Enterococcus faecalis = assay: Antimicrobial activity against Enterococcus faecalis OG1RF after 72 hrs by broth microdilution method
Escherichia coli = assay: Antimicrobial activity against Escherichia coli MC4100 after 72 hrs by broth microdilution method; details: MC4100, 72 h
Pseudomonas aeruginosa = assay: Antimicrobial activity against wild-type Pseudomonas aeruginosa PAO1 after 72 hrs by broth microdilution method; details: PAO1, 72 h

Structure (SMILES)	MIC (Staphylococcus aureus) [µM]	MIC (Enterococcus faecalis) [µM]	MIC (Escherichia coli) [µM]	MIC (Pseudomonas aeruginosa) [µM]
CCCCCCCCCCCC[N+](C)(C)CCN(C)CCN(C)CC[N+](C)(C)CCCCCCCCCCCC	1	1	1	4
CCCCCCCCCC[N+](C)(C)CCCCC[N+](C)(C)CCCCCCCCCC	2	4	8	63
CCCCCCCCCCCC[N+](C)(C)CCCCC[N+](C)(C)CCCCCCCCCCCC	2	1	1	2
CCCCCCCCCCCCCC[N+](C)(C)CCCCC[N+](C)(C)CCCCCCCCCCCCCC	1	1	4	16
CCCCCCCCCCCCCCCC[N+](C)(C)CCCCC[N+](C)(C)CCCCCCCCCCCCCCCC	2	2	16	32
CCCCCCCCCC[N+](C)(C)CCN(C)CC[N+](C)(C)CCCCCCCCCC	2	8	8	63
CCCCCCCCCCC[N+](C)(C)CCN(C)CC[N+](C)(C)CCCCCCCCCCC	2	2	2	8
CCCCCCCCCCCC[N+](C)(C)CCN(C)CC[N+](C)(C)CCCCCCCCCCCC	1	1	2	4
CCCCCCCCCCCCCC[N+](C)(C)CCN(C)CC[N+](C)(C)CCCCCCCCCCCCCC	2	1	4	16
CCCCCCCCCCCCCCCC[N+](C)(C)CCN(C)CC[N+](C)(C)CCCCCCCCCCCCCCCC	4	2	16	32
CCCCCCCCCC[N+](C)(C)CC[N+](C)(C)CC[N+](C)(C)CCCCCCCCCC	2	8	8	63
CCCCCCCCCCC[N+](C)(C)CC[N+](C)(C)CC[N+](C)(C)CCCCCCCCCCC	2	2	4	8
CCCCCCCCCCCC[N+](C)(C)CC[N+](C)(C)CC[N+](C)(C)CCCCCCCCCCCC	≤ 60.2	≤ 60.2	0.5	1
CCCCCCCCCCCCCC[N+](C)(C)CC[N+](C)(C)CC[N+](C)(C)CCCCCCCCCCCCCC	1	1	2	8
C=CC[N+](C)(CC[N+](C)(C)CCCCCCCCCC)CC[N+](C)(C)CCCCCCCCCC	2	4	2	63
C=CC[N+](C)(CC[N+](C)(C)CCCCCCCCCCC)CC[N+](C)(C)CCCCCCCCCCC	1	2	2	16
C=CC[N+](C)(CC[N+](C)(C)CCCCCCCCCCCC)CC[N+](C)(C)CCCCCCCCCCCC	2	2	2	4

Structure (SMILES)	MIC (Staphylococcus aureus) [µM]	MIC (Enterococcus faecalis) [µM]	MIC (Escherichia coli) [µM]	MIC (Pseudomonas aeruginosa) [µM]
C=CC[N+](C)(CC[N+](C)(C)CCCCCCCCCCCCCC)CC[N+](C)(C)CCCCCCCCCCCCCC	2	2	2	8
C=CC[N+](C)(CC[N+](C)(C)CCCCCCCCCCCCCCCC)CC[N+](C)(C)CCCCCCCCCCCCCCCC	4	4	8	16
CCCCCCCCCCCC[N+](C)(C)CCCCCCC[N+](C)(C)CCCCCCCCCCCC	1	1	2	8
CCCCCCCCCCCC[N+](C)(C)CCCN(C)CCC[N+](C)(C)CCCCCCCCCCCC	1	2	1	4
CCCCCCCCCCCC[N+](C)(C)CCC[N+](C)(C)CCC[N+](C)(C)CCCCCCCCCCCC	1	2	2	8
C=CC[N+](C)(CCC[N+](C)(C)CCCCCCCCCCCC)CCC[N+](C)(C)CCCCCCCCCCCC	1	2	2	4
CCCCCCCCCCCC[N+](C)(C)CCC[N+](C)(CCCC)CCC[N+](C)(C)CCCCCCCCCCCC	1	1	1	2
CCCCCCCCCCCC[N+](C)(C)CCC[N+](C)(CCC[N+](C)(C)CCCCCCCCCCCC)Cc1ccccc1	1	1	1	2
CCCCCCCCCCCC[N+](C)(C)CCC[N+](C)(CCC[N+](C)(C)CCCCCCCCCCCC)Cc1ccc(CCCCCCCC)cc1	1	1	1	4
CCCCCCCCCCCC[N+](C)(C)CCC[N+](C)(CCCCCCCCCCCC)CCC[N+](C)(C)CCCCCCCCCCCC	0.5	1	1	4
CCCCCCCCCCCC[N+](C)(C)CCN(C)CCN(C)CCN(C)C	8	8	8	32
CCCCCCCCCCCCCC[N+](C)(C)CCN(C)CCN(C)CCN(C)C	16	16	32	125
CCCCCCCCCCCCCC[N+](C)(C)CCN(C)CCN(C)CC[N+](C)(C)CCCCCCCCCCCC	1	1	2	8
CCCCCCCCCCCCCC[N+](C)(C)CCN(C)CCN(C)CC[N+](C)(C)CCCCCCCCCCCCCC	2	1	2	16
C=CC[N+](C)(CC[N+](C)(C)CCCCCCCCCCCC)CC[N+](C)(CC=C)CC[N+](C)(C)CCCCCCCCCCCC (configuration not stated)	1	1	1	2
CCCCCCCCCCCC[N+](C)(C)Cc1ccccc1 [BENZODODECINIUM CHLORIDE]	8	8	32	63
